Experiments:
[1] = Induction of apoptosis in mouse thymocytes at 30 uM after 3 hrs by annexin V-FITC/ethidium bromide staining-based flow cytometric analysis relative to control; assay type: cell-based; conditions: thymocyte
B16-F10 [2] = experiment: Induction of apoptosis in mouse B16F10 cells assessed as late apoptotic cells at 100 uM after 48 hrs by annexin V-FITC/propidium iodide staining-based flow cytometric analysis (reference value: 0.450%); assay type: functional, cell-based
B16-F10 [3] = experiment: Induction of apoptosis in mouse B16F10 cells assessed as early apoptotic cells at 1 uM after 48 hrs by annexin V-FITC/propidium iodide staining-based flow cytometric analysis (reference value: 0.087%); assay type: functional, cell-based
B16-F10 [4] = experiment: Induction of apoptosis in mouse B16F10 cells assessed as increase in sub-diploid DNA content at 100 uM after 48 hrs by propidium iodide staining-based flow cytometric analysis relative to control; assay type: functional, cell-based
B16-F10 [5] = experiment: Induction of apoptosis in mouse B16F10 cells assessed as increase in sub-diploid DNA content at 100 uM after 24 hrs by propidium iodide staining-based flow cytometric analysis relative to control; assay type: functional, cell-based
B16-F10 [6] = experiment: Induction of apoptosis in mouse B16F10 cells at 1 uM after 48 hrs by annexin V-FITC/propidium iodide staining-based flow cytometric analysis relative to control; assay type: functional, cell-based
B16-F10 [7] = experiment: Induction of apoptosis in mouse B16F10 cells assessed as early apoptotic cells at 100 uM after 48 hrs by annexin V-FITC/propidium iodide staining-based flow cytometric analysis (reference value: 0.087%); assay type: functional, cell-based
B16-F10 [8] = experiment: Induction of apoptosis in mouse B16F10 cells assessed as viable cells at 100 uM after 48 hrs by annexin V-FITC/propidium iodide staining-based flow cytometric analysis (reference value: 98.4%); assay type: functional, cell-based
B16-F10 [9] = experiment: Induction of apoptosis in mouse B16F10 cells assessed as increase in sub-diploid DNA content at 10 uM after 48 hrs by propidium iodide staining-based flow cytometric analysis relative to control; assay type: functional, cell-based
B16-F10 [10] = experiment: Induction of apoptosis in mouse B16F10 cells assessed as early apoptotic cells at 10 uM after 48 hrs by annexin V-FITC/propidium iodide staining-based flow cytometric analysis (reference value: 0.087%); assay type: functional, cell-based
B16-F10 [11] = experiment: Induction of apoptosis in mouse B16F10 cells at 1 to 100 uM after 48 hrs by annexin V-FITC/propidium iodide staining-based flow cytometric analysis relative to staurosporine; assay type: functional, cell-based
B16-F10 [12] = experiment: Induction of apoptosis in mouse B16F10 cells at 10 uM after 48 hrs by annexin V-FITC/propidium iodide staining-based flow cytometric analysis relative to control; assay type: functional, cell-based
B16-F10 [13] = experiment: Induction of apoptosis in mouse B16F10 cells assessed as viable cells at 1 uM after 48 hrs by annexin V-FITC/propidium iodide staining-based flow cytometric analysis (reference value: 98.4%); assay type: functional, cell-based
B16-F10 [14] = experiment: Induction of apoptosis in mouse B16F10 cells assessed as late apoptotic cells at 10 uM after 48 hrs by annexin V-FITC/propidium iodide staining-based flow cytometric analysis (reference value: 0.450%); assay type: functional, cell-based
B16-F10 [15] = experiment: Induction of apoptosis in mouse B16F10 cells assessed as increase in sub-diploid DNA content at 100 uM after 24 hrs by propidium iodide staining-based flow cytometric analysis relative to staurosporin; assay type: functional, cell-based
B16-F10 [16] = experiment: Selectivity index, ratio of IC50 for mouse Melan-a cells to IC50 for mouse B16F10 cells; assay type: functional
B16-F10 [17] = experiment: Selectivity index, ratio of IC50 for mouse L929 cells to IC50 for mouse B16F10 cells; assay type: functional
B16-F10 [18] = experiment: Induction of apoptosis in mouse B16F10 cells assessed as increase in sub-diploid DNA content at 10 uM after 24 hrs by propidium iodide staining-based flow cytometric analysis relative to control; assay type: functional, cell-based
B16-F10 [19] = experiment: Induction of apoptosis in mouse B16F10 cells assessed as late apoptotic cells at 1 uM after 48 hrs by annexin V-FITC/propidium iodide staining-based flow cytometric analysis (reference value: 0.450%); assay type: functional, cell-based
K562 [20] = experiment: Selectivity index, ratio of IC50 for mouse Melan-a cells to IC50 for human K562 cells; assay type: functional
B16-F10 [21] = experiment: Induction of apoptosis in mouse B16F10 cells at 100 uM after 48 hrs by annexin V-FITC/propidium iodide staining-based flow cytometric analysis relative to control; assay type: functional, cell-based
B16-F10 [22] = experiment: Induction of apoptosis in mouse B16F10 cells assessed as dead cells at 10 uM after 48 hrs by annexin V-FITC/propidium iodide staining-based flow cytometric analysis (reference value: 1.11%); assay type: functional, cell-based
B16-F10 [23] = experiment: Induction of apoptosis in mouse B16F10 cells assessed as increase in sub-diploid DNA content at 10 uM after 24 hrs by propidium iodide staining-based flow cytometric analysis relative to staurosporin; assay type: functional, cell-based
B16-F10 [24] = experiment: Induction of apoptosis in mouse B16F10 cells assessed as viable cells at 10 uM after 48 hrs by annexin V-FITC/propidium iodide staining-based flow cytometric analysis (reference value: 98.4%); assay type: functional, cell-based
B16-F10 [25] = experiment: Induction of apoptosis in mouse B16F10 cells assessed as dead cells at 1 uM after 48 hrs by annexin V-FITC/propidium iodide staining-based flow cytometric analysis (reference value: 1.11%); assay type: functional, cell-based
K562 [26] = experiment: Selectivity index, ratio of IC50 for mouse L929 cells to IC50 for human K562 cells; assay type: functional
B16-F10 [27] = experiment: Induction of apoptosis in mouse B16F10 cells assessed as dead cells at 100 uM after 48 hrs by annexin V-FITC/propidium iodide staining-based flow cytometric analysis (reference value: 1.11%); assay type: functional, cell-based
K562 [28] = experiment: Cytotoxicity against human K562 cells assessed as cell viability after 72 hrs by tryphan blue assay; assay type: functional, cell-based
[29] = Cytotoxicity against mouse Melan-a cells assessed as cell viability after 72 hrs by MTT assay; assay type: cell-based
L929 = experiment: Cytotoxicity against mouse L929 cells assessed as cell viability after 72 hrs by MTT assay; assay type: cell-based
[30] = Cytotoxicity against mouse B16F10 cells assessed as cell viability after 72 hrs by MTT assay; assay type: functional, cell-based, B16-F10
HL-60 [31] = experiment: Induction of apoptosis in human HL60 cells assessed as increase in sub-diploid DNA content at 0.44 uM after 6 hrs by propidium iodide staining-based flow cytometric analysis relative to control; assay type: functional, cell-based
HL-60 [32] = experiment: Induction of apoptosis in human HL60 cells assessed as increase in sub-diploid DNA content at 0.44 uM after 12 hrs by propidium iodide staining-based flow cytometric analysis relative to control; assay type: functional, cell-based
B16-F10 [33] = experiment: Induction of apoptosis in mouse B16F10 cells assessed as early apoptotic cells at 0.1 uM after 48 hrs by annexin V-FITC/propidium iodide staining-based flow cytometric analysis (reference value: 0.087%); assay type: functional
B16-F10 [34] = experiment: Induction of apoptosis in mouse B16F10 cells assessed as dead cells at 0.1 uM after 48 hrs by annexin V-FITC/propidium iodide staining-based flow cytometric analysis (reference value: 1.11%); assay type: functional
B16-F10 [35] = experiment: Induction of apoptosis in mouse B16F10 cells assessed as late apoptotic cells at 0.1 uM after 48 hrs by annexin V-FITC/propidium iodide staining-based flow cytometric analysis (reference value: 0.450%); assay type: functional
B16-F10 [36] = experiment: Induction of apoptosis in mouse B16F10 cells assessed as viable cells at 0.1 uM after 48 hrs by annexin V-FITC/propidium iodide staining-based flow cytometric analysis (reference value: 98.4%); assay type: functional; conditions: B16-F10, 48 h, read-out: Activity
B16-F10 [37] = experiment: Induction of apoptosis in mouse B16F10 cells at 0.1 uM after 48 hrs by annexin V-FITC/propidium iodide staining-based flow cytometric analysis relative to control; assay type: functional

Compound: TRIPHENYLBISMUTHINE
- fold change (FC) [1]: 5

Compound: Bis-(2-acetylbenzoato)triphenylbismuth(V)
- Activity (B16-F10 [2]): 90.1%
- Activity (B16-F10 [3]): 15.4%
- fold change (FC) (B16-F10 [4]): 256
- fold change (FC) (B16-F10 [5]): 70
- fold change (FC) (B16-F10 [6]): 8
- Activity (B16-F10 [7]): 1.25%
- Activity (B16-F10 [8]): 1.57%
- fold change (FC) (B16-F10 [9]): 129
- Activity (B16-F10 [10]): 6.81%
- fold change (FC) (B16-F10 [11]): 1.5
- fold change (FC) (B16-F10 [12]): 33
- Activity (B16-F10 [13]): 66.1%
- Activity (B16-F10 [14]): 77.3%
- fold change (FC) (B16-F10 [15]): 70
- Ratio IC50 (B16-F10 [16]): 13
- Ratio IC50 (B16-F10 [17]): 6.1
- fold change (FC) (B16-F10 [18]): 18
- Activity (B16-F10 [19]): 14.6%
- Ratio IC50 (K562 [20]): 52.4
- fold change (FC) (B16-F10 [21]): 34
- Activity (B16-F10 [22]): 10.7%
- fold change (FC) (B16-F10 [23]): 18
- Activity (B16-F10 [24]): 5.22%
- Activity (B16-F10 [25]): 3.89%
- Ratio IC50 (K562 [26]): 24.6
- Activity (B16-F10 [27]): 7.1%

Compound: CC(=O)c1ccccc1C(=O)O
- IC50 (K562 [28]; Homo sapiens, K562, 72 h): 502 µM
- Ratio IC50 (B16-F10 [16]): <1
- Ratio IC50 (B16-F10 [17]): <1
- IC50 ([29]; Mus musculus, Melan-a, 72 h): 775 µM
- Ratio IC50 (K562 [20]): 1.5
- IC50 (L929; Mus musculus, L929, 72 h): 474 µM
- IC50 ([30]; Mus musculus, B16-F10, 72 h): 852 µM
- Ratio IC50 (K562 [26]): <1

Compound: CC(=O)c1ccc(O)c(C(=O)O)c1
- Ratio IC50 (B16-F10 [16]): <1
- Ratio IC50 (B16-F10 [17]): <1
- Ratio IC50 (K562 [20]): <1
- IC50 (L929; Mus musculus, L929, 72 h): 306 µM
- IC50 ([30]; Mus musculus, B16-F10, 72 h): 4880 µM
- Ratio IC50 (K562 [26]): <1

Compound: Bi-chlorodibenzo[c,f][1,5]thiabismocine
- fold change (FC) (HL-60 [31]): 13
- Activity (HL-60 [32]): 80%

Compound: CN[C@@H]1C[C@H]2O[C@@](C)([C@@H]1OC)n1c3ccccc3c3c4c(c5c6ccccc6n2c5c31)C(=O)NC4 [STAUROSPORINE]
- Activity (B16-F10 [33]): 0.461%
- Activity (B16-F10 [34]): 22.2%
- Activity (B16-F10 [35]): 43.5%
- viability at 0.1 µM (B16-F10 [36]): 33.9%
- fold change (FC) (B16-F10 [37]): 21

Compound: Bis-(5-acetylsalicylato)triphenylantimony(V) chloroform solvate
- Ratio IC50 (B16-F10 [16]): 1.6
- Ratio IC50 (B16-F10 [17]): 2.2
- Ratio IC50 (K562 [20]): 5.6
- Ratio IC50 (K562 [26]): 7.9

Compound: Bis-(4-acetylbenzoato)triphenylbismuth(V)
- Ratio IC50 (B16-F10 [16]): 12.7
- Ratio IC50 (B16-F10 [17]): 1.8
- Ratio IC50 (K562 [20]): 7.4
- Ratio IC50 (K562 [26]): 1

Compound: CC(=O)c1ccc(C(=O)O)cc1
- IC50 (K562 [28]; Homo sapiens, K562, 72 h): < 1000 µM
- Ratio IC50 (B16-F10 [16]): <1
- Ratio IC50 (B16-F10 [17]): 1.8
- Ratio IC50 (K562 [20]): <1
- IC50 (L929; Mus musculus, L929, 72 h): 331 µM
- IC50 ([30]; Mus musculus, B16-F10, 72 h): 176 µM
- Ratio IC50 (K562 [26]): <1

Compound: [sequence]
- Ratio IC50 (B16-F10 [16]): 6.7
- Ratio IC50 (B16-F10 [17]): 8
- Ratio IC50 (K562 [20]): 4.1
- Ratio IC50 (K562 [26]): 5

Compound: bis-(4-acetylbenzoato)triphenylantimony(V)
- Ratio IC50 (B16-F10 [16]): 6.6
- Ratio IC50 (B16-F10 [17]): 3.1
- Ratio IC50 (K562 [20]): 7.2
- Ratio IC50 (K562 [26]): 3.4

Compound: DICHLOROTRIPHENYLBISMUTHANE
- IC50 (K562 [28]; k562): 31.1 µM
- IC50 ([29]; melan-a): 130 µM
- IC50 (L929; l929): 154 µM
- IC50 ([30]; b16-f10): 19.2 µM

Compound: triphenylantimony(V) dichloride
- Ratio IC50 (B16-F10 [16]): 6.7
- Ratio IC50 (B16-F10 [17]): 1.9
- Ratio IC50 (K562 [20]): 2.6
- Ratio IC50 (K562 [26]): 2.6
